Measurements reported in patent US10376589B2, “Method for the treatment of a solid tumour” (The University of Sydney, priority 2011, dated 2019).

Columns and labels:
Type in all cases: cell-based, human
[1] = test system: PA-1 ovarian cancer cells; assay: MTT cytotoxicity assay, 72 hrs; settings: PA-1, MTT
Method: (§1) Human DLD-1 colon cancer cells and human PA-1 ovarian cancer cells were obtained from the American Type Culture Collection (Manassas, Va., USA). Cells were maintained in complete media (Advanced DMEM (Invitrogen) and supplemented with 2% foetal bovine serum (Sigma) and 2 mM Glutamax™ (Invitrogen)) at 37° C. in a humidified, 5% CO2 atmosphere. Spheroids were formed by plating 1.5×10^5 cells/ml onto agarose coated 96 well imaging plates (BD Biosciences) and the cells allowed to aggregate for 72 hrs at 37° C. in a humidified, 5% CO2 atmosphere resulting in the formation of single spheroid per well.
(§2) Active compounds and/or nanoparticles were diluted as required in cell media immediately prior to the assay. Cytotoxicity was determined using the MTT assay as follows. 1×10^5 cells were seeded onto each well of flat bottomed 96-well plates and allowed to attach overnight. Solutions of compounds+/−nanoparticles were added to triplicate wells at concentrations spanning a 4-log range and incubated for 72 hrs. MTT (3-(4, 5-dimethylthiazolyl-2)-2,5-diphenyltetrazolium bromide) (1.0 mM) was added to each well and were incubated for a further 4 hrs. The culture medium was removed from each well, DMSO (150 μL) was added, the plate shaken for 5 seconds and the absorbance measured immediately at 600 nm in a Victor^3V microplate reader (Perkin Elmer). IC50 values were determined as the drug concentration that reduced the absorbance to 50% of that in untreated control wells. At least three independent experiments were performed for each compound with triplicate readings in each experiment.

DLD-1 colon cancer cells = assay: MTT cytotoxicity assay, 72 hrs; settings: DLD-1, MTT; for IC50: Homo sapiens
Method: as §1, §2

DLD-1 spheroids [2] = assay: Cisplatin accumulation in spheroids by atomic absorption spectroscopy; settings: cisplatin 6 ppm without iron oxide particles, 48 hours incubation
Method: as §1
DLD-1 spheroids prepared as per example 25 were dosed as with 100 μl of solution of complete media containing cisplatin and iron oxide nanoparticles from examples 1 and 2 to yield a final concentration of both cisplatin and iron oxide of 6 ppm. The spheroids with iron oxide particles and cisplatin were replaced in the incubator and maintained at 37° C. in a 5% CO2 atmosphere. After 48 hours incubation, the free cisplatin and nanoparticles in the media were washed with excess phosphate buffered saline.

DLD-1 spheroids [3] = assay: Confocal imaging of fluorescent active compound diffusion into spheroids
Method: as §1
(§3) (a) To the suspension of the 3 day old spheroids from example 25, 100 μl of a solution containing nanoparticles incomplete media was added to each spheroid, to yield a final concentration of particles of 10 ppm in 200 μl total volume. he spheroids were replaced in an incubator at 37° C., 5% CO2. […]
DLD-1 spheroids from example 25 were either dosed with NP2 (example 2), which are particles coated with a stabiliser containing a phosphate anchoring group or NP19 or NP23 (examples 19 and 23), which are particles coated with a stabiliser that has no anchoring portion as per example 27b. The spheroid was then imaged by confocal microscopy (as per example 28) to visualise doxorubicin fluorescence.

PA-1 spheroids = assay: Spheroid outgrowth assay
Method: as §1
as §3, with “CO2. After 24 hours incubation, the nanoparticles in the media were removed by washing with excess phosphate buffered saline prior to further experimentation.” for “CO2.”
Spheroids from example 25 were treated as per example 27b and 27c. […] Widefield fluorescence images of the brightfield and Hoechst 33342 stained nuclei were taken of the cells that had grown out from the spheroid (Olympus CellR). To quantitate the outgrowth, the number of nuclei within a 60° angle from the edge of the spheroid was counted. […]

Question: `O=c1[nH]cc(F)c(=O)[nH]1` [5-Fluorouracil] was tested. Which IC50 ([1]; Homo sapiens) did it give?
Answer: Its IC50 is 10000 nM.

Question: And the IC50 (DLD-1 colon cancer cells)?
Answer: The IC50 was 10000 nM.

Question: What does the source list for `N.N.[Cl][Pt][Cl]` [Cisplatin]?
Answer: IC50 [1]: 600 nM; concentration of cisplatin in the spheroids (DLD-1 spheroids [2]): 0.20 ppb

Question: For `COc1cccc2c1C(=O)c1c(O)c3c(c(O)c1C2=O)C[C@@](O)(C(=O)CO)C[C@@H]3O[C@H]1C[C@H](N)[C@H](O)[C@H](C)O1` [Doxorubicin], which IC50 ([1]; Homo sapiens) is on record?
Answer: Its IC50 is 1000 nM.

Question: What about the IC50 (DLD-1 colon cancer cells) of the same compound?
Answer: The IC50 was 1000 nM.

Question: And the “doxorubicin diffusion into the spheroid” value (DLD-1 spheroids [3]; doxorubicin alone)?
Answer: Its value is “approximately 70 μm”.

Question: What does the source list for `O=C1c2c(O)ccc(O)c2C(=O)c2c(NCCNCCO)ccc(NCCNCCO)c21` [Mitoxantrone]?
Answer: IC50 ([1]; Homo sapiens): 20 nM; IC50 (DLD-1 colon cancer cells): 40 nM; mitoxantrone diffusion into the spheroid (DLD-1 spheroids [3]; mitoxantrone alone): approximately 70 μm; effectiveness, co-administration versus administration of active compound delayed 24 hours (PA-1 spheroids; PA-1 spheroids): requires the co-administration of nanoparticles; effectiveness in PA-1 compared to DLD-1 spheroids (PA-1 spheroids; active compound co-administered with nanoparticles (examples 2, 3, 4, 5)): significantly more effective

Question: Which results are given for `CC(=O)O[C@H]1C(=O)[C@@]2(C)[C@H]([C@H](OC(=O)c3ccccc3)[C@]3(O)C[C@H](OC(=O)[C@H](O)[C@@H](NC(=O)c4ccccc4)c4ccccc4)C(C)=C1C3(C)C)[C@]1(OC(C)=O)CO[C@@H]1C[C@@H]2O` [Paclitaxel]?
Answer: 72 hr IC50 ([1]; result in words): indeterminable*; 72 hr IC50 (DLD-1 colon cancer cells; result in words): indeterminable*
